Results: ChEMBL document CHEMBL5518193, “Discovery of N-alkyl-N-benzyl thiazoles as novel TRPC antagonists for the treatment of glioblastoma multiforme” (Eur J Med Chem, 2024)

Columns and labels:
[1] = target: T1, Short transient receptor potential channel 3 (Homo sapiens, UniProt Q13507); experiment: Antagonist activity at human TRPC3 stably expressed in HEK293 cells inhibition of calcium influx by calcium fluorescence assay; format: cell-based
T1 sequence (Q13507 whole entry): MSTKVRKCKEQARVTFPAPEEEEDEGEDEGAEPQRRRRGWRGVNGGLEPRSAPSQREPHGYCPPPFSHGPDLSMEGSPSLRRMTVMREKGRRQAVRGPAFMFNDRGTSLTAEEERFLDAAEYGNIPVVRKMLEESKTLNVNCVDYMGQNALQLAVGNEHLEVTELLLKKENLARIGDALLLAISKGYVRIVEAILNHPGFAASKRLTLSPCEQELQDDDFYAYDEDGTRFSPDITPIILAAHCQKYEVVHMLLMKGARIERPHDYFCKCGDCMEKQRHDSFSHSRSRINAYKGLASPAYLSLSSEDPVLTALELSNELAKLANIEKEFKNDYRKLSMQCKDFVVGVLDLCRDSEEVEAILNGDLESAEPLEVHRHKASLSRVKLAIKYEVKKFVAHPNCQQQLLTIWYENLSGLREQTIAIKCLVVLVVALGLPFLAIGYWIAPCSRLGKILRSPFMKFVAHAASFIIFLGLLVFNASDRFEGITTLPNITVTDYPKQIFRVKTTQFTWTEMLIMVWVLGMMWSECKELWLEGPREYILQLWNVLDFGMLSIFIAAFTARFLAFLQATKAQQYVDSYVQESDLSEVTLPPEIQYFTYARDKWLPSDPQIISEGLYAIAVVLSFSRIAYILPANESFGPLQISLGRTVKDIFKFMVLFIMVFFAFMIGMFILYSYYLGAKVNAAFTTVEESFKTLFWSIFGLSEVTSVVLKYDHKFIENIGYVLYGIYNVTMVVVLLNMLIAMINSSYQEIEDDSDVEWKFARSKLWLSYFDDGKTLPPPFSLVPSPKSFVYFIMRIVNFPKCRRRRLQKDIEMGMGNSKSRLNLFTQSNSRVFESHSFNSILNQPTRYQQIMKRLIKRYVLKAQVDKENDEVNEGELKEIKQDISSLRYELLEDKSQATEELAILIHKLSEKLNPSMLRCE

[2] = target: T2, Short transient receptor potential channel 7 (Homo sapiens, UniProt Q9HCX4); experiment: Antagonist activity at human TRPC7 stably expressed in HEK293 cells inhibition of calcium influx by calcium fluorescence assay; format: cell-based
T2 sequence (Q9HCX4 whole entry): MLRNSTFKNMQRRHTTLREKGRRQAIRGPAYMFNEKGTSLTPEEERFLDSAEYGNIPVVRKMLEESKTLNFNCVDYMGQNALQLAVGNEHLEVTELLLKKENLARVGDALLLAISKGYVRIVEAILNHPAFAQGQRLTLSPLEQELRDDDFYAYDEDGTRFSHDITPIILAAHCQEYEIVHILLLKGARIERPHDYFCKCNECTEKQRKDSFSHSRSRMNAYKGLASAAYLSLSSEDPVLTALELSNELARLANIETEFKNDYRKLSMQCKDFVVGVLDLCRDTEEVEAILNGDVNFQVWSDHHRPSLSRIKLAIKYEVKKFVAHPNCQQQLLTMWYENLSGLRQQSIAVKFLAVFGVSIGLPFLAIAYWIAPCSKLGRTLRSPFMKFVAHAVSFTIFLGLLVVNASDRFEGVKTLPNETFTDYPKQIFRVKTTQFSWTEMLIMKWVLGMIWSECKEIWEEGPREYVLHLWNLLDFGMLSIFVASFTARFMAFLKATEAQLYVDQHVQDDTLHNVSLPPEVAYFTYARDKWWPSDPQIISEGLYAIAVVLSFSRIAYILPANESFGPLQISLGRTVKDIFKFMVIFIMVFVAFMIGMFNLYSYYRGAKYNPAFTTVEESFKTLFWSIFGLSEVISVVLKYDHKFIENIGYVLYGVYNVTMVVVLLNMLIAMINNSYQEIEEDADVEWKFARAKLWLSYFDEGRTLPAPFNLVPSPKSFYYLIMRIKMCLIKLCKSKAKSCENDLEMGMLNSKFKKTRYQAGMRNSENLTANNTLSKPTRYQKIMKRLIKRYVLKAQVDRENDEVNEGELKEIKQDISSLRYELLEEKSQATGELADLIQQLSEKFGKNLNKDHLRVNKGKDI

A549 = experiment: Antiproliferative activity against human A549 cells assessed as reduction in cell viability incubated for 72 hrs by MTT assay; format: functional, cell-based; conditions: A549, 72 h
[3] = Tmax in BALB/c mouse at 12.5 mg/kg, ip administered as liposome encapsulated form measured upto 24 hrs by LC-MS/MS analysis; format: ADME, organism-based; conditions: in vivo
[4] = Tmax in BALB/c mouse at 25 mg/kg, ip administered as liposome encapsulated form and measured upto 24 hrs by LC-MS/MS analysis; format: ADME, organism-based; conditions: in vivo
[5] = Toxicity against BALB/c nude mouse xenografted with human U87 cells assessed as change in body weight at 12.5 to 50 mg/kg/day administered as liposome encapsulated form for 15 days; format: organism-based, U-87MG ATCC; conditions: in vivo, 360 h, dose 12.5-50 mg/kg/day, time 15 day
[6] = Selectivity index, ratio of IC50 for human LNCaP cells to IC50 for human U87 cells; format: functional

Structure (SMILES): NCCN(Cc1ccc2ccccc2c1)c1nc(C(=O)Nc2ccc(O)cc2)cs1
- IC50 [1]: 2.4 µM
- IC50 [2]: 3.4 µM
- IC50 (A549): 21.1 µM
- Tmax [3]: 4 h
- Tmax [4]: 4 h
- Activity [5]: Non-Toxic
- Ratio IC50 [6]: 2
